Experimental data: ChEMBL document CHEMBL4196047, “Discovery and evolution of aloperine derivatives as novel anti-filovirus agents through targeting entry stage” (Eur J Med Chem, 2018)
Active and inactive are the calls of the source. The rule behind the calls is not given here.

Tests used:
in vitro [1] = conditions: human, HEK293T cells
[2] = test system: Vesicular stomatitis virus; assay: microbe, parasite or virus in culture; assay type: functional, organism-based; conditions: HEK-293T
in vitro [3] = conditions: human, HEK293T cells; remark: listed apart in the source
Ebolavirus [4] = assay: microbe, parasite or virus in culture; assay type: functional, cell-based; conditions: Orthoebolavirus, HEK-293T
Marburgvirus [5] = assay: microbe, parasite or virus in culture; assay type: functional, organism-based; conditions: Orthomarburgvirus, HEK-293T
in vitro [6] = conditions: human, HEK293T cells; remark: listed apart in the source
[7] = MRT in BALB/c mouse at 25 mg/kg, po; assay type: ADME, organism-based; conditions: in vivo
[8] = Tmax in BALB/c mouse at 25 mg/kg, po; assay type: ADME, organism-based; conditions: in vivo
[9] = Toxicity in iv dosed Kunming mouse administered as single dose measured for 7 days; assay type: organism-based; conditions: in vivo
[10] = AUC (0 to infinity) in BALB/c mouse at 25 mg/kg, po; assay type: ADME, organism-based; design: dose 25 mg/kg, time infinity, route oral; conditions: in vivo
[11] = AUC (0 to t) in BALB/c mouse at 25 mg/kg, po; assay type: ADME, organism-based; conditions: in vivo
[12] = Cmax in BALB/c mouse at 25 mg/kg, po; assay type: ADME, organism-based; design: dose 25 mg/kg, route oral; conditions: in vivo
Ebolavirus [13] = assay: Antiviral activity against HIV1 pseudotyped EBOV infected in HEK293T cells assessed as inhibition of late stage viral entry at 25 uM treated for 1 hr post infection measured after 72 hrs by luciferase reporter gene assay relative to control; assay type: functional; conditions: Orthoebolavirus, HEK-293T
[14] = Toxicity in ig dosed Kunming mouse administered as single dose measured for 7 days; assay type: organism-based; conditions: in vivo, po
Marburgvirus [15] = assay: Antiviral activity against HIV1 pseudotyped MARV infected in BALB/c mouse at 100 ug, iv and ip measured at day 4 by bioluminescence assay relative to control; assay type: functional
[16] = target: Cathepsin B (Homo sapiens) (UniProt P07858); assay: Inhibition of cathepsin B in HEK293 cells using N-benzyloxycarbonyl-L-arginyl-L-arginine-7-amido-4-methylcoumarin as substrate; assay type: cell-based
[17] = target: Procathepsin L (Homo sapiens) (UniProt P07711); assay: Inhibition of cathepsin L in HEK293 cells using N-benzyloxycarbonyl-L-phenylalanyl-L-arginine-7-amido-4-methylcoumarin as substrate; assay type: cell-based
[18] = Half life in BALB/c mouse at 25 mg/kg, po; assay type: ADME, organism-based; conditions: in vivo
Ebolavirus [19] = assay: Antiviral activity against HIV1 pseudotyped EBOV infected in HEK293T cells assessed as inhibition of late stage viral entry at 25 uM treated during infection measured after 72 hrs by luciferase reporter gene assay relative to control; assay type: functional; conditions: Orthoebolavirus, HEK-293T
HEK-293T [20] = assay: Inhibition of endosomal acidification in HEK293T cells at 20 to 40 uM after 1 hr by LysoTracker Red dye-based confocal fluorescence microscopic analysis; assay type: functional, cell-based; conditions: Homo sapiens
Ebolavirus [21] = assay: Antiviral activity against HIV1 pseudotyped EBOV infected in HEK293T cells assessed as inhibition of late stage viral entry at 25 uM treated for 1 hr before infection measured after 72 hrs by luciferase reporter gene assay relative to control; assay type: functional; conditions: Orthoebolavirus, HEK-293T
[22] = Toxicity in ip dosed Kunming mouse administered as single dose measured for 7 days; assay type: organism-based; conditions: in vivo
HEK-293T [23] = assay: Inhibition of endosomal acidification in HEK293T cells at […] after 1 hr by LysoTracker Red dye-based confocal fluorescence microscopic analysis; assay type: functional, cell-based; conditions: Homo sapiens

Chain of Procathepsin L (Homo sapiens) (P07711 114-333 limits assumed): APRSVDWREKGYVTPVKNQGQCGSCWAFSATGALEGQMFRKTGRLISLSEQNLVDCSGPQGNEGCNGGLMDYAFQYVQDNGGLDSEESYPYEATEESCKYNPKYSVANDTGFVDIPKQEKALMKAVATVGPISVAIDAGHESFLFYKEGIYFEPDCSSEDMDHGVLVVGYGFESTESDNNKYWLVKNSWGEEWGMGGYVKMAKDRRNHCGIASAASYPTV

Row | Compound | selectivity ratio (in vitro [1]) | EC50 [2] | selectivity ratio (in vitro [3]) | EC50 (Ebolavirus [4]) | EC50 (Marburgvirus [5]) | CC50 (in vitro [6]) | also measured
1 | Clc1cc(Cl)cc(CN2CCCC3=C[C@H]4C[C@H](CN5CCCC[C@H]45)[C@@H]32)c1 | 10.3 | 34.3 µM | 9.8 | 8.1 µM | 8.5 µM | 83.5 µM | 
2 | Clc1cc(Cl)cc(CCCN2CCCC3=C[C@H]4C[C@H](CN5CCCC[C@H]45)[C@@H]32)c1 | 4.2 | 19.6 µM |  | 6.1 µM |  | 25.9 µM | 
3 | O=S(=O)(c1ccc(Cl)c(Cl)c1)N1CCCC2=C[C@H]3C[C@H](CN4CCCC[C@H]34)[C@@H]21 | > 8.3 | 45.4 µM | > 19 | 24.1 µM | 10.5 µM | > 200 µM | 
4 | Clc1ccc(CCCN2CCCC3=C[C@H]4C[C@H](CN5CCCC[C@H]45)[C@@H]32)cc1Cl | 5 | 23 µM |  | 5.8 µM |  | 29.3 µM | 
5 | Clc1ccc(CCN2CCCC3=C[C@H]4C[C@H](CN5CCCC[C@H]45)[C@@H]32)cc1 | 13.9 | 52.2 µM |  | 6 µM |  | 83.3 µM | 
6 | C1=C2CCCN(Cc3ccccc3)[C@H]2[C@@H]2C[C@H]1[C@H]1CCCCN1C2 | 11 | 28.3 µM | 7.6 | 15.2 µM | 22 µM | 168 µM | 
7 | O=S(=O)(c1cc(Cl)cc(Cl)c1)N1CCCC2=C[C@H]3C[C@H](CN4CCCC[C@H]34)[C@@H]21 | > 18.9 | 31.3 µM | > 7.4 | 10.6 µM | 27.2 µM | > 200 µM | 
8 | O=S(=O)(c1cccs1)N1CCCC2=C[C@H]3C[C@H](CN4CCCC[C@H]34)[C@@H]21 | > 6 | > 200 µM | > 3.2 | 33.2 µM | 62.4 µM | > 200 µM | 
9 | Clc1ccc(CCCN2CCCC3=C[C@H]4C[C@H](CN5CCCC[C@H]45)[C@@H]32)cc1 | 10.4 | 49.9 µM |  | 7.1 µM |  | 74.1 µM | 
10 | COc1cccc(CN2CCCC3=C[C@H]4C[C@H](CN5CCCC[C@H]45)[C@@H]32)c1 | > 16.5 | 59 µM | > 11.2 | 12.1 µM | 17.8 µM | > 200 µM | 
11 | O=C(c1cc(Cl)cc(Cl)c1)N1CCCC2=C[C@H]3C[C@H](CN4CCCC[C@H]34)[C@@H]21 | > 5 | > 200 µM | > 5.7 | 39.8 µM | 35.3 µM | > 200 µM | 
12 | N#Cc1cccc(S(=O)(=O)N2CCCC3=C[C@H]4C[C@H](CN5CCCC[C@H]45)[C@@H]32)c1 | > 2.9 | > 200 µM | > 2.8 | 69.4 µM | 70.7 µM | > 200 µM | 
13 | Clc1ccc(CCN2CCCC3=C[C@H]4C[C@H](CN5CCCC[C@H]45)[C@@H]32)cc1Cl | 7.6 | 44 µM |  | 6.8 µM |  | 51.5 µM | 
14 | Clc1ccc(CN2CCCC3=C[C@H]4C[C@H](CN5CCCC[C@H]45)[C@@H]32)cc1 | > 16.8 | 77.8 µM | > 20.4 | 11.9 µM | 9.8 µM | > 200 µM | 
15 | Clc1ccc(CN2CCCC3=C[C@H]4C[C@H](CN5CCCC[C@H]45)[C@@H]32)cc1Cl | > 41.7 | > 200 µM | > 28.2 | 4.8 µM | 7.1 µM | > 200 µM | MRT [7]: 4.89 h; Tmax [8]: 0.67 h; LD50 at 168 h [9]: 28.3 mg/kg; AUC(0-inf) [10]: 4.89 µM·h; AUC(0-t) [11]: 2.74 µM·h; Cmax [12]: 290 nM; inhibition at 25 µM (Ebolavirus [13]): 85%; LD50 at 168 h [14]: 458 mg/kg; Activity (Marburgvirus [15]): 45%; inhibition [16]: Active; inhibition [17]: inactive; half-life [18]: 4.14 h; inhibition at 25 µM (Ebolavirus [19]): 23 to 66%; inhibition (HEK-293T [20]): inactive; inhibition at 25 µM (Ebolavirus [21]): < 38%; LD50 at 168 h [22]: > 100 mg/kg
16 | Fc1ccc(CN2CCCC3=C[C@H]4C[C@H](CN5CCCC[C@H]45)[C@@H]32)cc1 | > 11.8 | 107 µM | > 9.3 | 17 µM | 21.5 µM | > 200 µM | 
17 | O=C(c1ccc(Cl)c(Cl)c1)N1CCCC2=C[C@H]3C[C@H](CN4CCCC[C@H]34)[C@@H]21 | 4.1 | 98.6 µM | 2.5 | 49 µM | 80.8 µM | 200 µM | 
18 | O=S(=O)(c1ccc(Cl)cc1)N1CCCC2=C[C@H]3C[C@H](CN4CCCC[C@H]34)[C@@H]21 | > 9.2 | 104 µM | > 10.6 | 21.8 µM | 18.8 µM | > 200 µM | 
19 | C1=C2CCCN[C@H]2[C@@H]2C[C@H]1[C@H]1CCCCN1C2 | > 16.1 | 103 µM | > 19.6 | 12.4 µM | 10.2 µM | > 200 µM | 
20 | Cl.N |  |  |  |  |  |  | inhibition (HEK-293T [23]): Active
21 | Cc1ccccc1CN1CCCC2=C[C@H]3C[C@H](CN4CCCC[C@H]34)[C@@H]21 | 9.7 | 39 µM | 10.8 | 16.6 µM | 15 µM | 162 µM | 
22 | Clc1ccc(CN2CCCC3=C[C@H]4C[C@H](CN5CCCC[C@H]45)[C@@H]32)c(Cl)c1 | > 30.3 | 10.6 µM | > 31.2 | 6.6 µM | 6.4 µM | > 200 µM | 
23 | O=C(c1ccc(Cl)cc1)N1CCCC2=C[C@H]3C[C@H](CN4CCCC[C@H]34)[C@@H]21 | > 5.9 | 89.6 µM | > 1.8 | 34.1 µM | 112 µM | > 200 µM | 
24 | Clc1cc(Cl)cc(CCN2CCCC3=C[C@H]4C[C@H](CN5CCCC[C@H]45)[C@@H]32)c1 | 9.8 | 42.5 µM |  | 5.7 µM |  | 56 µM | 
25 | FC(F)(F)Oc1ccc(CN2CCCC3=C[C@H]4C[C@H](CN5CCCC[C@H]45)[C@@H]32)cc1 | 7.9 | 22.4 µM | 6.9 | 10.4 µM | 11.9 µM | 82 µM | 
